System: RAW
Experiment: Inhibition of LPS-induced NO production in RAW 264.7 cells
Type: functional, cell-based
Details: Mus musculus

In the case of `C=C1C[C@]23C[C@H](OC(=O)/C=C/c4ccc(O)c(O)c4)[C@H]1[C@@]2(C)CCCC3(C)C`, the IC50 is reported as 6.3 µM.

Reference: ChEMBL document CHEMBL1147120, “Chemical constituents of malagasy Liverworts. 6. A myltaylane caffeate with nitric oxide inhibitory activity from Bazzania nitida” (J Nat Prod, 2007)
